Source: patent US20230009626A1 (ICHNOS SCIENCES S.A., priority 2018, published 2023)

Molecular target: HPK1 (MAP4K1) (Homo sapiens, UniProt Q92918)
Experiment: FRET Assay for HPK1 (MAP4K1): one step binding assay, displacement of labeled tracer
Conditions: for inhibition at 1 µM: 1 μM compound; for inhibition at 1 µM / inhibition at 10 µM: FRET ratio 665/620, percent of control; for inhibition at 10 µM: 10 μM compound; for IC50: dose response curve, nonlinear regression
Source text: FRET Assay for HPK1 (MAP4K1):
This is a one step binding assay based on the binding and displacement of the labeled tracer, where compound addition is followed by addition of the anti-GST tagged europium (Eu) as the donor and Alexa Fluor-labeled tracer as the acceptor. Simultaneous binding of both the tracer and GST-antibody to the kinase domain of HPK1 results in a high degree of FRET (fluorescence resonance energy transfer) from the anti-GST tagged europium (Eu) fluorophore to the Alexa Fluor® 647 fluorophore on the kinase tracer and this signal is reduced in presence of the inhibitor that can be measured.
Test compounds or reference compounds such as Sunitinib (Sigma) were dissolved in dimethylsulfoxide (DMSO) to prepare 10.0 mM stock solutions and diluted to the desired concentration. The final concentration of DMSO in the reaction was 3% (v/v). The assay mixture was prepared by mixing 4 nM of the Eu-Anti-GST Antibody and 10 nM MAP4K-1 enzyme in the Kinase buffer containing 50mM HEPES (pH 7.5), 10 mM MgCl2, 1 mM EGTA, 0.01% Brij-35 with or without the desired concentration of the compound. The reaction was incubated on ice for 15 mins. The pre-incubation step was followed by addition of the 20 nM Kinase Tracer 222 into the reaction mixture. After shaking for 5 min the reaction was further incubated for 1 hour at room temperature and this was kept at 4° C. and read on ARTEMIS reader as per the kit instructions (Thermo). […] The activity was calculated as percent of control reaction. IC50 values were calculated from dose response curve by nonlinear regression analysis using GraphPad Prism software.
Percentage inhibition at concentrations of 1.0 μM and 10.0 μM are given in the table along with IC50 (nM) details for selected examples.

HPK1 (MAP4K1), sequence (Q92918 whole entry): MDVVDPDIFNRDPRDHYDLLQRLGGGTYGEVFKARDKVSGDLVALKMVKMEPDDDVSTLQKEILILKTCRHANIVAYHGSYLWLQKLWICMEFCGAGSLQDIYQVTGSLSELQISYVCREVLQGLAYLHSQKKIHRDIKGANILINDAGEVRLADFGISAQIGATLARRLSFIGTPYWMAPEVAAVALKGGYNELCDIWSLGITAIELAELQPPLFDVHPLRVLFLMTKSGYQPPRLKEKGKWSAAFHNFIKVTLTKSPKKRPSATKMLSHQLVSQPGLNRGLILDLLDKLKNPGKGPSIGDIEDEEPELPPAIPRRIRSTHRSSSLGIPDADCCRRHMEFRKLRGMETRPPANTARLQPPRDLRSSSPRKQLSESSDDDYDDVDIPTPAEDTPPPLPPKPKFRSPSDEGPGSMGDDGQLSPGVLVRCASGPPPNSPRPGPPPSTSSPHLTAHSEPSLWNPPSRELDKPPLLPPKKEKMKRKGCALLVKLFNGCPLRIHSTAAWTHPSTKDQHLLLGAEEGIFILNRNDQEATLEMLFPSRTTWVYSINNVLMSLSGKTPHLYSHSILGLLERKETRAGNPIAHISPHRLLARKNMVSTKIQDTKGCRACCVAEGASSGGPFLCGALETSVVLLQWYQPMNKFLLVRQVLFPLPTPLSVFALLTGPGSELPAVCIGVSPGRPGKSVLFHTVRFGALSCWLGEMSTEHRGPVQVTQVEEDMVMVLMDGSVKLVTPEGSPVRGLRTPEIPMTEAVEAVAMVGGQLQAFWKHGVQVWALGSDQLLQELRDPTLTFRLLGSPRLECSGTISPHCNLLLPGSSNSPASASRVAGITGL

| Structure (SMILES) | inhibition at 1 µM [%] | inhibition at 10 µM [%] | IC50 [µM] |
| --- | --- | --- | --- |
| C/C(Nc1cnn(C)c1)=C1/C(=O)Nc2cnc(-c3cnccc3C)cc21 [Example 23, (Z)-3-(1-((1-methyl-1H-pyrazol-4-yl)amino)ethylidene)-5-(4-methylpyridin-3-yl)-1H-pyrrolo[2,3-c]pyridin-2(3H)-one] | 84.6 | 87 | < 0.05 |
| C/C(Nc1cnn(C)c1)=C1/C(=O)Nc2cnc(-c3ccc(F)cc3F)cc21 [Example 24, (Z)-5-(2,4-Difluorophenyl)-3-(1-((1-methyl-1H-pyrazol-4-yl)amino)ethylidene)-1H-pyrrolo[2,3-c]pyridin-2(3H)-one] | 70.9 | 79.7 | 0.1 to 0.5 |
| CCOc1cccc(F)c1-c1cc2c(cn1)NC(=O)/C2=C(/C)Nc1cnn(C)c1 [Example 25, (Z)-5-(2-Ethoxy-6-fluorophenyl)-3-(1-((1-methyl-1H-pyrazol-4-yl)amino)ethylidene)-1H-pyrrolo[2,3-c]pyridin-2(3H)-one] | 87.1 | 85.3 | < 0.05 |
| COc1cccc(F)c1-c1cc2c(cc1F)NC(=O)/C2=C(/C)Nc1cnn(C)c1 [Example 26] | 88.8 | 93.5 | < 0.05 |
| COc1cccc(F)c1-c1cc2c(cn1)NC(=O)/C2=C(/C)Nc1cnn(C2COC2)c1 [Example 27, (Z)-5-(2-Fluoro-6-methoxyphenyl)-3-(1-((1-(oxetan-3-yl)-1H-pyrazol-4-yl)amino)ethylidene)-1H-pyrrolo[2,3-c]pyridin-2(3H)-one] | 88.4 | 96.3 | < 0.05 |
| COc1cccc(F)c1-c1cc2c(cn1)NC(=O)/C2=C(/C)Nc1ccn(C)n1 [Example 28, (Z)-5-(2-Fluoro-6-methoxyphenyl)-3-(1-((1-methyl-1H-pyrazol-3-yl)amino)ethylidene)-1H-pyrrolo[2,3-c]pyridin-2(3H)-one] | 84.8 | 89.4 | < 0.05 |

Continued, values first:

| inhibition at 1 µM [%] | inhibition at 10 µM [%] | IC50 [µM] | Structure (SMILES) |
| --- | --- | --- | --- |
| 87.4 | 85.1 | < 0.05 | CCn1cc(N/C(C)=C2\C(=O)Nc3cnc(-c4c(F)cccc4OC)cc32)cn1 [Example 29, (Z)-3-(1-((1-Ethyl-1H-pyrazol-4-yl)amino)ethylidene)-5-(2-fluoro-6-methoxyphenyl)-1H-pyrrolo[2,3-c]pyridin-2(3H)-one] |
| 89.9 | 92.8 | < 0.05 | COc1cccc(F)c1-c1cc2c(cn1)NC(=O)/C2=C(/C)Nc1cnn(C2CC2)c1 [Example 30, (Z)-3-(1-((1-Cyclopropyl-1H-pyrazol-4-yl)amino)ethylidene)-5-(2-fluoro-6-methoxyphenyl)-1H-pyrrolo[2,3-c]pyridin-2(3H)-one] |
| 86.9 | 92.3 | < 0.05 | COc1cccc(F)c1-c1cc2c(cn1)NC(=O)/C2=C(/C)Nc1cnn(C(C)C#N)c1 (stereo not drawn) [Example 31, (Z)-2-(4-((1-(5-(2-Fluoro-6-methoxyphenyl)-2-oxo-1H-pyrrolo[2,3-c]pyridin-3(2H)-ylidene)ethyl)amino)-1H-pyrazol-1-yl)propanenitrile] |
| 90.3 | 100 | < 0.05 | CC/C(Nc1cnn(C)c1)=C1/C(=O)Nc2cnc(-c3c(F)cccc3OC)cc21 [Example 32, (Z)-5-(2-Fluoro-6-methoxyphenyl)-3-(1-((1-methyl-1H-pyrazol-4-yl)amino)propylidene)-1H-pyrrolo[2,3-c]pyridin-2(3H)-one] |
| 91.6 | 87.8 | < 0.05 | COc1ccncc1-c1cc2c(cn1)NC(=O)/C2=C(/C)Nc1cnn(C)c1 [Example 33, (Z)-5-(4-methoxypyridin-3-yl)-3-(1-((1-methyl-1H-pyrazol-4-yl)amino)ethylidene)-1H-pyrrolo[2,3-c]pyridin-2(3H)-one] |
